Data taken from article PMC7479175, “Selection of Potent Inhibitors of Soluble Epoxide Hydrolase for Usage in Veterinary Medicine” (Frontiers in Veterinary Science, 2020).
Where two headings read alike, the source gives them in different places.

Experiments:
Microsomal stability [1] = type: in vitro ADME, dog; settings: for Stability (% without microsomes) Dog liver microsomes NADPH + / Stability (% without microsomes) Dog liver microsomes NADPH –: 1 μM inhibitor, microsomes 1 mg/mL, 37°C, 30 min, compound remaining, average ± SD (n = 3); for Stability (% without microsomes) Dog liver microsomes NADPH +: with NADPH; for metabolism in dog liver microsomes (in words): in the presence of NADPH
Description: (§1) The stability of the sEH inhibitors was determined using liver microsomes as described ([24]). […] After 30 min at 37°C, the reaction was stopped by the addition of one volume of methanol containing CUDA (200 nM) as surrogate. The amount of remaining inhibitor was determined by LC/MS/MS. The stability is reported as a percentage of compound remaining after 30 min in these conditions.
(§2) Mass spectrometry analyses were performed using a Waters Quattro Premier triple quadrupole tandem mass spectrometer (Micromass, Manchester, UK) interfaced to an electrospray ionization (ESI) source. The MS was coupled with a Waters Acquity UPLC (Waters, Milford, MA, USA). A Varian Pursuit5 C18 RP HPLC column (150 mm × 2.1 mm, particle size 5 μm) was used to separate the analytes. […] The source and the desolvation temperatures were set at 120 and 300°C, respectively. […] Dwell time was set to 0.1 s.

Microsomal stability [2] = type: in vitro ADME, cat; settings: for Stability (% without microsomes) Cat liver microsomes NADPH + / Stability (% without microsomes) Cat liver microsomes NADPH –: 1 μM inhibitor, microsomes 1 mg/mL, 37°C, 30 min, compound remaining, average ± SD (n = 3); for Stability (% without microsomes) Cat liver microsomes NADPH +: with NADPH; for metabolism in cat liver microsomes (in words): in the presence of NADPH
Description: as §1, §2

[3] = molecular target: T1, sEH activity from liver cytosol of Rat (Rattus norvegicus, UniProt P80299); assay: sEH inhibition potency (IC50), radioactive assay with [3H]t-DPPO, liver cytosol; type: biochemical
T1 construct: The radioactive fluorescent assay was used with the liver crude extracts; from tissue; host or cells: rat liver cytosol (100,000 g supernatant)
T1 sequence (P80299 1-554): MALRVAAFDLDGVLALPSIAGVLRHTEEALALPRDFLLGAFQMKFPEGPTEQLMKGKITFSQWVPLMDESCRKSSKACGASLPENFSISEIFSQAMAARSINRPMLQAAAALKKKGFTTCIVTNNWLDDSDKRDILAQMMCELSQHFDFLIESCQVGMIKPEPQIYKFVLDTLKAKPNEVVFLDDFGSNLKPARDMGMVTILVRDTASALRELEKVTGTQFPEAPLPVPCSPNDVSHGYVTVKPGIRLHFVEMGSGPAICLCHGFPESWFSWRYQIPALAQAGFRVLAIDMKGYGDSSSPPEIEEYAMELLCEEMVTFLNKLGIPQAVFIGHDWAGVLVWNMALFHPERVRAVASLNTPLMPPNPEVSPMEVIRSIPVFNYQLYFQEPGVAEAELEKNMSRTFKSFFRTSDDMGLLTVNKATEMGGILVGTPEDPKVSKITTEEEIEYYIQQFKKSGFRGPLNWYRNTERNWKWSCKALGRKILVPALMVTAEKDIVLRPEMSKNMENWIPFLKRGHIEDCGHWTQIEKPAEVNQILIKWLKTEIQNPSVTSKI
From the text: (§3) Fresh liver tissues samples (5–30 g) were collected promptly after death from healthy adult cat, dog and horse euthanized for reasons unrelated to this study, and whose bodies were given to science by the owners in line with federal regulations and protocol approved by the Institutional Animal Care and Use Committee at University of California Davis. Similarly, tissues from the other animals tested herein were collected from healthy animals immediately after being slaughter at the university abattoir. Because no animals were directly used or killed for this study, sample collections were exempted from approval by the Institutional Animal Care and Use Committee of the University of California Davis and Michigan State University. […] The tissues were flash-frozen in liquid nitrogen following removal, and then kept at −80°C until used. After thawing on ice, the samples were homogenized in chilled sodium phosphate buffer (20 mM pH 7.4) containing 5 mM EDTA, 1 mM DTT and 1 mM PMSF (tissue weight:buffer volume ratio 1:4). These homogenates were centrifuged at 100,000 g for 60 min at 4°C. The supernatant (the cytosolic fraction) was separated from the pellet, aliquoted and flash frozen in liquid nitrogen, then kept frozen at −80°C until usage.
(§4) The IC50 values reported herein were determined using either a fluorescent based assay (CMNPC as substrate) for purified enzyme preparations or a radioactive based assay ([^3H]t-DPPO as substrate) for crude enzyme preparations ([20]). The fluorescent assay was used with the purified proteins. […] The substrate (CMNPC) was then added ([S]final = 5 μM). […] The radioactive […] assay was used with the liver crude extracts. Extracts were incubated with inhibitors ([I]final = 1–1,000 nM) at 30° C for 5 min in sodium phosphate buffer (pH 7.4) containing 0.1 mg/mL of BSA and 1% of DMSO, prior to substrate introduction ([^3H]t-DPPO [S]final: 50 μM; ~12,000 dpm/assay). The enzymes were incubated at 30°C for 10 min, and the reaction was quenched by the addition of 60 μL methanol and 200 μL isooctane, which extracts the remaining epoxide from the aqueous phase. […] Assays were performed in triplicate.

[4] = molecular target: T2, sEH activity from liver cytosol of Hamster (Mesocricetus auratus, UniProt A0A1U7QV09); assay: as above; type: biochemical; settings: [3H]t-DPPO ([S]final = 5 μM) as substrate
T2 sequence (A0A1U7QV09 1-554): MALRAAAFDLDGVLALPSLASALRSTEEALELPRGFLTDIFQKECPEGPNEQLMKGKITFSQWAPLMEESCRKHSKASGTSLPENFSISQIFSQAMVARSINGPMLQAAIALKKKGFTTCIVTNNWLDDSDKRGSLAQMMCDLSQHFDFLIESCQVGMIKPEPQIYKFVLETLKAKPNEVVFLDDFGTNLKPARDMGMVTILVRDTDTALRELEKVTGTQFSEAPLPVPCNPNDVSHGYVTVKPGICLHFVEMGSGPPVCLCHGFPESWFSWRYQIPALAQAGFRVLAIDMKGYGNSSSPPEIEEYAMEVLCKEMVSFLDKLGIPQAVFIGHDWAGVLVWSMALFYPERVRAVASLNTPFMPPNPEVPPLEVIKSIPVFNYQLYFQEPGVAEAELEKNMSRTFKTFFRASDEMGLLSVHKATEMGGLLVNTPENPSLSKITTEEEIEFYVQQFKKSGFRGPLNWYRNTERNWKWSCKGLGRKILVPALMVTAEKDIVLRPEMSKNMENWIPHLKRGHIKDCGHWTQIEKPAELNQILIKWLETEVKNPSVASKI
From the text: as §3, §4

Microsomal stability [5] = type: in vitro ADME, horse; settings: for Stability (% without microsomes) Horse liver microsomes NADPH + / Stability (% without microsomes) Horse liver microsomes NADPH –: 1 μM inhibitor, microsomes 1 mg/mL, 37°C, 30 min, compound remaining, average ± SD (n = 3); for Stability (% without microsomes) Horse liver microsomes NADPH +: with NADPH; for metabolism in horse liver microsomes (in words): in the presence of NADPH
Description: as §1, §2

[6] = liver cytosol, [3H]t-DPPO ([S]final = 5 μM) as substrate, read-out: IC50 (nM) Rat

SMILES | Stability (% without microsomes) Dog liver microsomes NADPH + (Microsomal stability [1]) [%] | Stability (% without microsomes) Dog liver microsomes NADPH – (Microsomal stability [1]) [%] | stability in dog liver microsomes (in words) (Microsomal stability [1]; in the absence of NADPH) | metabolism in dog liver microsomes (in words) (Microsomal stability [1]) | Stability (% without microsomes) Cat liver microsomes NADPH + (Microsomal stability [2]) [%] | Stability (% without microsomes) Cat liver microsomes NADPH – (Microsomal stability [2]) [%] | stability in cat liver microsomes (in words) (Microsomal stability [2]; in the absence of NADPH) | IC50 [3, 6] [nM] | IC50 [4] [nM] | Stability (% without microsomes) Horse liver microsomes NADPH + (Microsomal stability [5]) [%] | Stability (% without microsomes) Horse liver microsomes NADPH – (Microsomal stability [5]) [%] | stability in horse liver microsomes (in words) (Microsomal stability [5]; in the absence of NADPH) | metabolism in horse liver microsomes (in words) (Microsomal stability [5]) | metabolism in cat liver microsomes (in words) (Microsomal stability [2]) | IC50 [3] [nM]
N#CNC(=O)CCCCCCCCCCCNC(=O)NC12CC3CC(CC(C3)C1)C2 [1,845] | 34 ± 11 | 84 ± 3 | not stable | further metabolized | 9 ± 2 | 5 ± 1 | not stable | 12 | 34 | 28 ± 9 | 67 ± 3 | not stable | further metabolized | – | –
O=C(NCCCCOc1ccc(F)cc1)NC12CC3CC(CC(C3)C1)C2 [1,707] | 8 ± 3 | 87 ± 17 | – | metabolized rapidly | 5 ± 1 | 101 ± 14 | – | 7 | 2 | 1.6 ± 0.2 | – | – | metabolized rapidly | metabolized rapidly | –
O=C(Nc1ccc(OC(F)(F)F)cc1)N[C@H]1CC[C@H](Oc2ccc(C(=O)O)cc2)CC1 [1,728, trans-4-{4-[3-(4-trifluoromethoxy-phenyl)-ureido]-cyclohexyloxy}-benzoic acid] | 100 ± 3 | 104 ± 3 | – | most stable | 101 ± 3 | 103 ± 8 | – | – | 5 | 89 ± 3 | 108 ± 10 | – | most stable | most stable | 6
